Data reported in patent publication US4194006A, “Therapeutic application of acetyl-d,l-carnitine and other acyl derivatives of d,l-carnitine” (priority 1977, dated 1980).
Where two headings read alike, the source gives them in different places.

Legend:
female rats = experiment: antifatigue effect: rota-rod; type: in vivo, rat; settings: Rattus norvegicus, ip, 0.25 h, read-out: percentage of animals staying on the rota-rod more than 180 seconds; for responders at 300 mg/kg: 300 mg/kg i.p.; for responders at 400 mg/kg: 400 mg/kg i.p.; for responders at 600 mg/kg: 600 mg/kg i.p.
In short: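 Female rats dosed intraperitoneally in saline, with controls given saline alone. Every 15 min after treatment animals were placed on a 6 cm rod rotating at 16 r.p.m. Value is the percentage of animals staying on the rod for more than 180 s, per session.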

isolated rat atrium = experiment: antiarrhythmic effect, isolated rat atrium method of M. Libonati and G. Segre; settings: Rattus norvegicus; for inhibition at 0.1 µg/mL / activation at 0.1 µg/mL: 1·10^-4 g/lt; for inhibition at 0.1 µg/mL / inhibition at 0.01 µg/mL / inhibition at 0.001 µg/mL: decrease; for activation at 0.1 µg/mL / activation at 0.01 µg/mL / activation at 0.001 µg/mL: increase; for inhibition at 0.01 µg/mL / activation at 0.01 µg/mL: 1·10^-5 g/lt; for inhibition at 0.001 µg/mL / activation at 0.001 µg/mL: 1·10^-6 g/lt
isolated rabbit hearts [1] = experiment: coronary vasodilator effect: coronary flow, isolated heart (Langendorff)
In short: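 Langendorff-perfused isolated rabbit hearts in oxygenated Ringer at 38.2° C; anoxia imposed until contractile force fell by 80%, then reoxygenated with or without test compound. Coronary flow, isometric contraction and ECG recorded by polygraph.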

isolated rabbit hearts [2] = experiment: cardiokinetic effect on isolated heart (Langendorff): contractile force after anoxia, positive inotropic effect; settings: 10 minutes from interruption of anoxic period
In short: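 Rabbit hearts were perfused Langendorff-style with oxygenated Ringer at 38.2 °C. Anoxia was applied until contractile force dropped by 80%, then the hearts were reoxygenated with or without compound. Contractile force was expressed as a percentage 10 min after the anoxic period ended.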

in vivo = settings: mouse, in vivo, iv
Description: The tolerance of acetyl-d,l-carnitine and of the other aforementioned acyl derivatives of the formula (I), as well as their salts were investigated by comparing the LD50 obtained by administering the compounds intravenously in mice with the LD50 obtained under the same experimental conditions by intravenous injection of d,l-carnitine.

[3] = session 6 (every 15 minutes), * p < 0.05
[4] = read-out: Mean percent variation versus controls: excitability (-%)
[5] = read-out: Mean percent variation versus controls: frequency max (-%)
[6] = read-out: Mean percent variation versus controls: refractory period (+%)
[7] = read-out: Mean percent variation versus controls: rheobase (+%)

SMILES: CCCCCCCCCCCCCCCCCC(=O)OC(CC(=O)[O-])C[N+](C)(C)C (racemic) [stearoyl-d,l-carnitine]
- responders at 300 mg/kg (female rats; session 1 (every 15 minutes)): 0%
- responders at 300 mg/kg (female rats; session 2 (every 15 minutes)): 0%
- responders at 300 mg/kg (female rats; session 3 (every 15 minutes)): 0%
- responders at 300 mg/kg (female rats; session 4 (every 15 minutes)): 10%
- responders at 300 mg/kg (female rats; session 5 (every 15 minutes)): 10%
- responders at 300 mg/kg (female rats; session 6 (every 15 minutes)): 10%
- responders at 400 mg/kg (female rats; session 1 (every 15 minutes)): 0%
- responders at 400 mg/kg (female rats; session 2 (every 15 minutes)): 0%
- responders at 400 mg/kg (female rats; session 3 (every 15 minutes)): 0%
- responders at 400 mg/kg (female rats; session 4 (every 15 minutes)): 10%
- responders at 400 mg/kg (female rats; session 5 (every 15 minutes)): 20%
- responders at 400 mg/kg (female rats; [3]): 20%
- responders at 600 mg/kg (female rats; session 1 (every 15 minutes)): 0%
- responders at 600 mg/kg (female rats; session 2 (every 15 minutes)): 10%
- responders at 600 mg/kg (female rats; session 3 (every 15 minutes)): 10%
- responders at 600 mg/kg (female rats; session 4 (every 15 minutes)): 20%
- responders at 600 mg/kg (female rats; session 5 (every 15 minutes)): 20%
- responders at 600 mg/kg (female rats; [3]): 20%
- inhibition at 0.1 µg/mL (isolated rat atrium; [4]): 12.3%
- inhibition at 0.1 µg/mL (isolated rat atrium; [5]): 3.5%
- activation at 0.1 µg/mL (isolated rat atrium; [6]): 24.6%
- activation at 0.1 µg/mL (isolated rat atrium; [7]): 2.08%
- inhibition at 0.01 µg/mL (isolated rat atrium; [4]): 0%
- inhibition at 0.01 µg/mL (isolated rat atrium; [5]): 1.92%
- activation at 0.01 µg/mL (isolated rat atrium; [6]): 16.2%
- activation at 0.01 µg/mL (isolated rat atrium; [7]): 3.84%
- inhibition at 0.001 µg/mL (isolated rat atrium; [4]): 0%
- inhibition at 0.001 µg/mL (isolated rat atrium; [5]): 0%
- activation at 0.001 µg/mL (isolated rat atrium; [6]): 15.6%
- activation at 0.001 µg/mL (isolated rat atrium; [7]): 1.85%
- Coronary flow, Mean ± S.E. (isolated rabbit hearts [1]; 1·10^-5 g/lt): 81.05 ± 6.27%
- Coronary flow, Mean ± S.E. (isolated rabbit hearts [1]; 1·10^-6 g/lt): 80.21 ± 8.78%
- Coronary flow, Mean ± S.E. (isolated rabbit hearts [1]; 5·10^-6 g/lt): 77.30 ± 11.8%
- Contractile force, Mean ± S.E. (isolated rabbit hearts [2]; 1·10^-5 g/lt): 32.8 ± 3.01%
- Contractile force, Mean ± S.E. (isolated rabbit hearts [2]; 1·10^-6 g/lt): 27.1 ± 3.18%
- Contractile force, Mean ± S.E. (isolated rabbit hearts [2]; 5·10^-6 g/lt): 27.5 ± 4.09%
- LD50 (in vivo): ~745 mg/kg
